Results reported in publication PMC8244912, “An oxytocin/vasopressin-related neuropeptide modulates social foraging behavior in the clonal raider ant” (PLoS Biology, 2021).
Entries after “also recorded” stand apart in the source; their conditions may differ. Where a SMILES comes first, the peptide text is derived from it. Bridges are numbered along the chain shown (N, C = ends).

What was measured:
[1] = tested on: HEK293T cells transfected with an empty vector; assay: Calcium imaging (fura-2), empty vector; type: cell-based, human
Description: (§1) Experiments were conducted following Garrison J.L., et al 2012 [8] with modifications. Human embryonic kidney 293T cells (HEK293T) were cultured in DMEM and supplemented with 10% FBS at 37 °C in a cell incubator containing 5% CO^2. Cells were grown in 35 mm MatTek glass bottom dishes to a level of 60 – 70% confluency. Cells were transfected with a 1:1 ratio of PCDNA3.3 containing ~ 1μg of itcR cDNA (full-length isoform A or truncated isoform H) (See S1 Fig for isoforms) and pcDNA3-alpha 16 (encoding promiscuous G protein 16) using Lipofectamine 2000. Cells were incubated for 24 h at 37 °C and then transferred to 28 °C for another 16-24 h. For control experiments, empty vector was also transfected. On the day of the experiment, the cells were loaded with […] fura-2/AM (Invitrogen) for 25 min at 37 °C. Inotocin peptide diluted in Ringer’s solution was applied to the cells for 15 s with a peristaltic pump, and fluorescence at 510 nm was monitored (excitation at 340/380 nm) using a MetaFluor calcium imaging system with a Nikon Eclipse TE2000U microscope.

Ooceraea biroi ants = assay: Pharmacological immersion, age- and brood-controlled colonies: distance traveled (automated tracking); type: in vivo; settings: for foraging activity / distance traveled vs control peptide: immersion in 1 mM, 5 h, n = 20 ants
Description: Mature O. biroi inotocin peptide (CLITNCPRG) was synthesized and cyclized at The Rockefeller University Proteomics Resource Center, along with a scrambled version of the peptide (NRPCGLTCI) as a negative control with identical amino acid composition.
For the full experiment (Fig 3), we set up 20 experimental colonies of line B ants that were color painted as previously described. Each colony consisted of 16 ants in an airtight Petri dish with 5-cm diameter. Eight ants in each colony were 3 weeks old, and 8 ants in each colony were 20 weeks old. We added ten 3- to 4-day-old larvae to each of 10 colonies and 10 white (young) pupae to each of the remaining 10 colonies. Brood items often die soon after introduction to a colony, so we added 2 extra brood items per colony to ensure there were 8 alive at the start of the experiment. After the ants had settled for 3 days, we adjusted the number of brood items to 8 per colony, after which we performed the pharmacological treatments. The rationale of having a 1:2 larvae-to-workers ratio in this experiment was to assess the possible effect of increased inotocin levels on worker behavior without saturating the brood signal, as ant larvae regulate worker foraging behavior in a dose-dependent manner.
On the day of the experiment, colonies were not fed. To avoid disturbance to the colony as much as possible, half the colony was left untreated, and half was treated. The treatments consisted of immersing the ants in 1 mM solution of freshly dissolved inotocin or control peptide diluted in water and kept on ice. The immersion took place in 1.5-ml Eppendorf tubes that were gently tapped against the bench top for 7 consecutive minutes, after which the liquid was removed using a 1.5-ml transfer pipette. The remaining liquid was removed with a Kimwipe, and ants were transferred to their source colony. In each colony, we treated 2 ants per age category with inotocin and 2 ants per age category with the control peptide. Ants were allowed to recover for 1 hour after the treatment before the start of the video recordings.
Videos were recorded for 5 hours at 5 frames per second using Logitech C910 USB cameras. Individual ants were tracked using anTraX [85]. In short, ants were segmented using a background subtraction and fixed threshold procedure. Blobs in consecutive frames were threaded into sequences using the Horn–Schunk optical flow method and then classified as single ants or multiple ants based on blob size and linkage criteria. Single ant blob sequences were classified into their appropriate IDs as detailed in [85]. Ants that were detected as single blobs were deemed “active,” and their location was recorded (Fig 3B). The activity level of an ant was defined as the total distance traveled, and an activity time course was created for each ant by summing its activity in time bins of 15 minutes for the entire duration of the experiment. All ants in a colony were tracked. The activity across ants from a given condition from all experimental colonies was averaged in each time bin. The resulting curves were fitted with first- or second-order polynomials using nonlinear regression (least squares fit). The fitted curves were compared using extra sum-of-squares F-tests to select for the best fitted model and to compare between fitted curves, and statistical significance thresholds were adjusted for 2 comparisons within experiments using Bonferroni corrections (old inotocin versus old mock and young inotocin versus young mock). […]

[2] = tested on: O. biroi inotocin receptor ObiroiItr_A; assay: Calcium imaging (fura-2), full-length receptor isoform A with G protein 16; type: cell-based, Ooceraea biroi; settings: ObiroiItr_A and G protein 16; fura-2, 510 nm, ex 340/380 nm; peptide for 15 s
Description: as §1

[3] = molecular target: O. biroi inotocin receptor (ObiroiItr_A) (Ooceraea biroi, UniProt A0A8F5LPT9); assay: Calcium flux, HEK293T cells transfected with full-length inotocin receptor (FLIPR Calcium 4); type: cell-based; settings: for HillSlope / LogEC50: variable slope; for LogEC50: X data log of Molar_Inotocin
Description: RNA was isolated in TRIzol using the RNeasy (Qiagen, Germantown, Maryland, USA) purification kit with DNAse I (Qiagen) on-column digestion as in [52] from a sample that contained adult ants, larvae, and pupae and reverse-transcribed into cDNA. Full-length cDNAs for the O. biroi inotocin receptor were PCR amplified with primers 5′-[…]-3′ and 5′-[…]-3′, using the Easy-A high fidelity polymerase (Agilent, Santa Clara, California, USA) to generate PCR products with 5′-Kozak consensus sequences and 3′-A overhangs. The inotocin receptor cDNAs were cloned into the pcDNA3.3 TOPO TA cloning vector (Invitrogen, Waltham, Massachusetts, USA) following manufacturer’s guidelines.
The full-length inotocin receptor cDNA sequence that was cloned and used for calcium assays is ObiroiItr_A (GenBank MW660838; for protein sequence, see S1 Fig). We also tested splice variant ObiroiItr_H (GenBank MW660845; for protein sequence, see S1 Fig), which lacks TM4-7, for calcium activity.
Human embryonic kidney 293T (HEK293T) cells were cultured in DMEM supplemented with 10% FBS at 37°C in a tissue culture incubator with a humidified atmosphere containing 5% CO2. Cells were plated in 10-cm dishes, and, when they reached 60% to 70% confluency, they were transfected with a pcDNA3.3 vector containing approximately 1 ng of inotocin receptor cDNA or an empty vector as a control using Lipofectamine 2000. Cells were transfected directly into poly-D-lysine–coated 384-well plates and incubated for 48 hours at 37°C. Subsequently, cells were incubated with FLIPR Calcium 4 Assay kit dye for 1 hour in the incubator. The fluorescence (excitation, 488 nm; emission, 530 nm) of the wells was recorded using a Flex Station II 384 (Molecular Devices, San Jose, California, USA), […], in sextuplicate (see below for inotocin peptide synthesis). We calculated the EC50 values using Prism (GraphPad Software version 8) nonlinear regression, 4-parameter logistic curve fit. Dose curves were repeated at least 3 times on independently prepared samples and different days.

O. biroi inotocin receptor (ObiroiItr_A), sequence (A0A8F5LPT9 entry or part of it): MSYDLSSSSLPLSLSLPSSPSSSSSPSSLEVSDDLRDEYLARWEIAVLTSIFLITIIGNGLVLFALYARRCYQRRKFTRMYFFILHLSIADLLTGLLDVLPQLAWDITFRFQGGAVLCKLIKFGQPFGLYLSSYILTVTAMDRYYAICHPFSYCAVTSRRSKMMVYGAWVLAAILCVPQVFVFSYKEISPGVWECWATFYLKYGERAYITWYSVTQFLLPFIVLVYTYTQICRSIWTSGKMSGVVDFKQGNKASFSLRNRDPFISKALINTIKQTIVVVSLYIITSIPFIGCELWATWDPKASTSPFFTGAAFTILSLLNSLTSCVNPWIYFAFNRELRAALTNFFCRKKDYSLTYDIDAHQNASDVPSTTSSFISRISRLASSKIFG

## CC[C@H](C)[C@@H]1NC(=O)[C@H](CC(C)C)NC(=O)[C@@H](N)CSSC[C@@H](C(=O)N2CCC[C@H]2C(=O)N[C@@H](CCCNC(=N)N)C(=O)NCC(N)=O)NC(=O)[C@H](CC(N)=O)NC(=O)[C@H]([C@@H](C)O)NC1=O [Inotocin] (H-CLITNCPRG-NH2; disulfide 1-6; N-terminus and C-terminus assumed)
[1]
  calcium signal: No calcium signal is detected
Ooceraea biroi ants; old ants, larvae present, p < 0.0002, Bonferroni corrected
  foraging activity / distance traveled vs control peptide: forage more than old ants treated with a control peptide; also recorded: displayed increased foraging activity in the presence of larvae; also recorded: had higher average distance traveled than ants under any other experimental condition
Ooceraea biroi ants; old ants, pupae present, p = 0.998, p > 0.99, Bonferroni corrected
  foraging activity / distance traveled vs control peptide: no difference in foraging activity was found; also recorded: no effect of inotocin treatment was observed
Ooceraea biroi ants; overall statement, contingent on age and social context
  tendency to leave the nest: increases the tendency of ants to leave the nest
Ooceraea biroi ants; young ants, larvae present, p = 0.106, p = 0.109, Bonferroni corrected
  foraging activity / distance traveled vs control peptide: No difference in foraging activity was detected; also recorded: no behavioral difference
Ooceraea biroi ants; young ants, pupae present, p < 0.0002, Bonferroni corrected
  foraging activity / distance traveled vs control peptide: foraged more when treated with inotocin; also recorded: slightly increased their activity; also recorded: increased their average distance traveled compared to ants under any other experimental condition
[2]
  calcium signal: Calcium signal is detected
[3]; Fig 1C data, Experiment 33015, SE 0.01132, 95% CI 0.2802 to 0.3251
  HillSlope: 0.3027
[3]; Fig 1C data, Experiment 33015, SE 0.05558, 95% CI -11.24 to -11.02
  LogEC50: -11.13
[3]; HEK293T cells expressing full-length itcR
  calcium response: responds in a dose-dependent manner to inotocin; also recorded: responded with calcium signals
[3]; S4A Fig, 032515_plate 2, SE 0.02063, 95% CI 0.2625 to 0.3443
  HillSlope: 0.3034
[3]; S4A Fig, 032515_plate 2, SE 0.1002, 95% CI -11.47 to -11.07
  LogEC50: -11.27
[3]; cells transfected with the inotocin receptor, calcium signals
  half-maximal effective concentration (EC50), in words: picomolar
